Among the test systems are UACC-62 melanoma; SK-OV-3 ovarian; NCI-H460 lung; CAKI-1 renal; HOP-62 NSCLC; HCC-2998 colon; OVCAR-5 ovarian; UO-31 renal; A498 renal; U251 CNS.
Holding throughout (experiment): inhibition of tumour cell growth, NCI panel, 48 h

Structures are written as SMILES.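 In this assay, cells in 96-well plates receive the compound at five concentrations for 48 hours. Endpoints are linearly interpolated between the surrounding concentrations. GI50: concentration for 50% inhibition of growth. TGI is the concentration that stops growth completely.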

For `Cc1[nH]c(-c2nc3ccccc3[nH]2)c(C)c1C(=O)NC(C)C1CCCCC1` (stereo not given), the GI50 in the assay on UACC-62 melanoma is 6.95 µM; in the assay with SK-OV-3 ovarian, 15.3 µM; in the assay with NCI-H460 lung, 14.4 µM; in the assay on CAKI-1 renal, 10.4 µM; with HOP-62 NSCLC, 12.7 µM; with HCC-2998 colon it was 13.6 µM. Besides, the GI50 is 15 µM with OVCAR-5 ovarian, 11.9 µM with UO-31 renal, 7.71 µM with A498 renal and 5.58 µM in the assay on U251 CNS. In addition, the TGI amounted to 21.6 µM with UACC-62 melanoma; 34.4 µM with SK-OV-3 ovarian; 32 µM in the assay with NCI-H460 lung; 22.2 µM in the assay with CAKI-1 renal; 38.3 µM in the assay with HOP-62 NSCLC; 34.6 µM in the assay on HCC-2998 colon. The TGI in the assay with OVCAR-5 ovarian was 29.2 µM; in the assay on UO-31 renal it was 25.6 µM; in the assay on A498 renal, 20.1 µM; in the assay with U251 CNS, 25.1 µM.
In the case of `COC(=O)/C=C1/SC(N2N=C(c3cccs3)CC2c2ccc(F)cc2)=NC1=O` (stereo not given), the GI50 with UACC-62 melanoma is 1.58 µM; in the assay with SK-OV-3 ovarian, 9.78 µM; with NCI-H460 lung, 2.19 µM; with CAKI-1 renal, 2.82 µM; in the assay with HOP-62 NSCLC it was 1.87 µM; in the assay with HCC-2998 colon it was 1.97 µM. Moreover, the GI50 in the assay with OVCAR-5 ovarian is 2.46 µM; in the assay with UO-31 renal it was 1.49 µM; in the assay on A498 renal, 1.81 µM; in the assay on U251 CNS it was 1.89 µM. Also, the TGI turned out to be 3.74 µM with UACC-62 melanoma; 53.9 µM in the assay with SK-OV-3 ovarian; 4.93 µM with NCI-H460 lung; 10.2 µM in the assay on CAKI-1 renal; 4.29 µM in the assay on HOP-62 NSCLC; 3.52 µM in the assay on HCC-2998 colon. The TGI is 5.21 µM in the assay with OVCAR-5 ovarian, 2.9 µM in the assay on UO-31 renal, 6.26 µM in the assay on A498 renal and 3.69 µM in the assay with U251 CNS.
In the case of `CCCCCCCCCCCCCCCC(=O)OCC1OC(OC)C2NP(=O)(N(CCCl)CCCl)OC1C2O` (stereo not given), the TGI in the assay on UACC-62 melanoma was determined as 8.71 µM; in the assay on SK-OV-3 ovarian it was 56.1 µM; with NCI-H460 lung, 14.5 µM; in the assay with CAKI-1 renal, 10.5 µM; with HOP-62 NSCLC it was 10.8 µM; in the assay on HCC-2998 colon, 9.46 µM. In addition, the TGI with OVCAR-5 ovarian was 59.2 µM; with UO-31 renal it was 35.1 µM; in the assay on A498 renal, 34.7 µM; in the assay on U251 CNS, > 19.5 µM.
Consider `Cc1ccc(C(SCC(N)C(=O)O)(c2ccccc2)c2ccccc2)cc1` (stereo not given), for which the GI50 with UACC-62 melanoma was 0.0561 µM; in the assay with SK-OV-3 ovarian, 0.0748 µM; in the assay with NCI-H460 lung it was 0.0718 µM; in the assay on CAKI-1 renal it was 0.151 µM; in the assay with HOP-62 NSCLC, 0.18 µM; with HCC-2998 colon, 0.246 µM. Moreover, the GI50 is 2.41 µM with OVCAR-5 ovarian, 13.8 µM with UO-31 renal, 1.02 µM in the assay with A498 renal and 0.042 µM in the assay on U251 CNS. Moreover, the TGI was > 59.4 µM in the assay with UACC-62 melanoma; > 94.7 µM with SK-OV-3 ovarian; 14.8 µM with NCI-H460 lung; > 100 µM in the assay with CAKI-1 renal; > 49.7 µM with HOP-62 NSCLC; 15.2 µM in the assay with HCC-2998 colon. For the same molecule, the TGI in the assay with OVCAR-5 ovarian was > 100 µM; in the assay on UO-31 renal, > 100 µM; in the assay with A498 renal, > 64.7 µM; in the assay on U251 CNS it was > 40.1 µM.
Consider `O=[N+]([O-])c1ccccc1C=NC12CC3CC(CC(C3)C1)C2`, for which the TGI with UACC-62 melanoma, in the assay with SK-OV-3 ovarian, in the assay with NCI-H460 lung, in the assay with CAKI-1 renal, with HOP-62 NSCLC and in the assay with HCC-2998 colon was > 100 µM in each case. The TGI in the assay on OVCAR-5 ovarian, in the assay with UO-31 renal, in the assay with A498 renal and with U251 CNS was > 100 µM each time.
On to `COc1cccc2c1C(=O)c1c(O)c3c(c(O)c1C2=O)C[C@@](O)(C(=O)CO)CC3OC1CC(O)C(O)C(C)O1` (stereo not given in full), for which the TGI with UACC-62 melanoma was found to be 0.492 µM; with SK-OV-3 ovarian, 7.29 µM; with NCI-H460 lung it was 1.8 µM; in the assay with CAKI-1 renal, 12.1 µM; with HOP-62 NSCLC, 0.217 µM; in the assay on HCC-2998 colon, 2.08 µM. For the same molecule, the TGI in the assay with OVCAR-5 ovarian was determined as 3.66 µM; with UO-31 renal, 2.41 µM; in the assay on A498 renal, 1.29 µM; in the assay with U251 CNS, 13.9 µM.
In the case of `O=C(Nc1cc(Cl)cc(Cl)c1)/C(Cc1nc2ccccc2[nH]c1=O)=N/NC(=O)c1ccncc1`, the TGI with UACC-62 melanoma, in the assay with SK-OV-3 ovarian, in the assay on NCI-H460 lung, in the assay with CAKI-1 renal, in the assay on HOP-62 NSCLC and in the assay on HCC-2998 colon was > 100 µM each time. The TGI in the assay with OVCAR-5 ovarian, in the assay with UO-31 renal, in the assay with A498 renal and in the assay on U251 CNS was > 100 µM throughout.
On to `CN1CCN(Cc2ccc(NC(=O)c3cncc(C#Cc4cncc5nccnc45)c3)cc2C(F)(F)F)CC1`, for which the GI50 with UACC-62 melanoma is 1.55 µM; with SK-OV-3 ovarian it was 2.75 µM; in the assay with NCI-H460 lung, 2.21 µM; with CAKI-1 renal it was 2.18 µM; in the assay with HOP-62 NSCLC it was 2.68 µM; in the assay with HCC-2998 colon it was 1.73 µM. Moreover, the GI50 in the assay with OVCAR-5 ovarian was 2.15 µM; in the assay with UO-31 renal, 2.16 µM; in the assay on A498 renal, 0.772 µM; with U251 CNS it was 5.67 µM. Further, the TGI with UACC-62 melanoma was 7.21 µM; in the assay on SK-OV-3 ovarian it was 13 µM; in the assay with NCI-H460 lung, 8.46 µM; with CAKI-1 renal, 9.09 µM; in the assay on HOP-62 NSCLC, 9.8 µM; with HCC-2998 colon, 8.48 µM. Besides, the TGI in the assay with OVCAR-5 ovarian is 32.8 µM; with UO-31 renal it was > 50 µM; in the assay on A498 renal, 3.22 µM; in the assay with U251 CNS, 13 µM.
`c1cncc(C2Nc3cccc4cccc(c34)N2)c1`: the GI50 was 38.7 µM with UACC-62 melanoma; > 100 µM in the assay on SK-OV-3 ovarian; > 100 µM with NCI-H460 lung; 48.7 µM with CAKI-1 renal; 42.5 µM with HOP-62 NSCLC; > 100 µM with HCC-2998 colon. Further, the GI50 was 88.7 µM in the assay on OVCAR-5 ovarian, 11.7 µM with UO-31 renal, 30.9 µM in the assay with A498 renal and 21.9 µM in the assay on U251 CNS. For the same molecule, the TGI with UACC-62 melanoma, with SK-OV-3 ovarian, in the assay with NCI-H460 lung, in the assay on CAKI-1 renal, in the assay with HOP-62 NSCLC and in the assay with HCC-2998 colon was > 100 µM each time. The TGI in the assay on OVCAR-5 ovarian is > 100 µM; in the assay with UO-31 renal, 27.4 µM; in the assay with A498 renal, > 100 µM; in the assay on U251 CNS, 54 µM.
